# In ChEMBL document CHEMBL1201861, “Genomics of Drug Sensitity in Cancer screening data, Wellcome Trust Sanger Institute”:
# Test system: HC-1;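 further: growth inhibition of HC-1 cells measured by a cell viability assay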
# Assay: cells
# Type: functional, cell-based, Homo sapiens
# Details: Homo sapiens, HC-1
# Description: SANGER: Inhibition of human HC-1 cell growth in a cell viability assay.
row,Compound,IC50
1,CCN(CC)CCNC(=O)c1c(C)[nH]c(/C=C2\C(=O)Nc3ccc(F)cc32)c1C [SUNITINIB],5.43 µM

# Test system: CGTH-W-1;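 further: growth inhibition of human CGTH-W-1 cells measured by cell viability assay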
# Assay: cells
# Type: functional, cell-based, Homo sapiens
# Details: Homo sapiens, CGTH-W-1
# Description: SANGER: Inhibition of human CGTH-W-1 cell growth in a cell viability assay.
row,Compound,IC50
1,CCN(CC)CCNC(=O)c1c(C)[nH]c(/C=C2\C(=O)Nc3ccc(F)cc32)c1C [SUNITINIB],0.0309 µM

# Test system: OVCAR-4;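 further: growth inhibition of human OVCAR-4 cells, measured with a cell viability assay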
# Assay: cells
# Type: functional, cell-based, Homo sapiens
# Details: Homo sapiens, OVCAR-4
# Description: SANGER: Inhibition of human OVCAR-4 cell growth in a cell viability assay.
row,Compound,IC50
1,CCN(CC)CCNC(=O)c1c(C)[nH]c(/C=C2\C(=O)Nc3ccc(F)cc32)c1C [SUNITINIB],> 8 µM

# Test system: MSTO-211H
# Assay: cells
# Type: functional, cell-based, Homo sapiens
# Details: Homo sapiens, MSTO-211H
# Description: SANGER: Inhibition of human MSTO-211H cell growth in a cell viability assay.
row,Compound,IC50
1,CCN(CC)CCNC(=O)c1c(C)[nH]c(/C=C2\C(=O)Nc3ccc(F)cc32)c1C [SUNITINIB],> 8 µM

# Test system: NOMO-1;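 further: growth inhibition of human NOMO-1 cells measured by a cell viability assay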
# Assay: cells
# Type: functional, cell-based, Homo sapiens
# Details: Homo sapiens, NOMO-1
# Description: SANGER: Inhibition of human NOMO-1 cell growth in a cell viability assay.
row,Compound,IC50
1,CCN(CC)CCNC(=O)c1c(C)[nH]c(/C=C2\C(=O)Nc3ccc(F)cc32)c1C [SUNITINIB],4.34 µM

# Test system: HCC2157;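 further: growth inhibition of the cancer cell line, read out as cell viability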
# Assay: cells
# Type: functional, cell-based, Homo sapiens
# Details: Homo sapiens, HCC2157
# Description: SANGER: Inhibition of human HCC2157 cell growth in a cell viability assay.
row,Compound,IC50
1,CCN(CC)CCNC(=O)c1c(C)[nH]c(/C=C2\C(=O)Nc3ccc(F)cc32)c1C [SUNITINIB],> 8 µM

# Test system: MOLT-16;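 further: growth inhibition of human MOLT-16 cells, read out with a cell viability assay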
# Assay: cells
# Type: functional, cell-based, Homo sapiens
# Details: Homo sapiens, MOLT-16
# Description: SANGER: Inhibition of human MOLT-16 cell growth in a cell viability assay.
row,Compound,IC50
1,CCN(CC)CCNC(=O)c1c(C)[nH]c(/C=C2\C(=O)Nc3ccc(F)cc32)c1C [SUNITINIB],0.631 µM

# Test system: NCI-H1650;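 further: growth inhibition of human NCI-H1650 cells measured by a cell viability assay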
# Assay: cells
# Type: functional, cell-based, Homo sapiens
# Details: Homo sapiens, NCI-H1650
# Description: SANGER: Inhibition of human NCI-H1650 cell growth in a cell viability assay.
row,Compound,IC50
1,CCN(CC)CCNC(=O)c1c(C)[nH]c(/C=C2\C(=O)Nc3ccc(F)cc32)c1C [SUNITINIB],> 8 µM

# Test system: LS-1034
# Assay: cells
# Type: functional, cell-based, Homo sapiens
# Details: Homo sapiens, LS-1034
# Description: SANGER: Inhibition of human LS-1034 cell growth in a cell viability assay.
row,Compound,IC50
1,CCN(CC)CCNC(=O)c1c(C)[nH]c(/C=C2\C(=O)Nc3ccc(F)cc32)c1C [SUNITINIB],> 8 µM

# Test system: COLO-824
# Assay: cells
# Type: functional, cell-based, Homo sapiens
# Details: Homo sapiens, COLO-824
# Description: SANGER: Inhibition of human COLO-824 cell growth in a cell viability assay.
row,Compound,IC50
1,CCN(CC)CCNC(=O)c1c(C)[nH]c(/C=C2\C(=O)Nc3ccc(F)cc32)c1C [SUNITINIB],> 8 µM

# Test system: IA-LM;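 further: cell viability assay measuring growth inhibition of human IA-LM cells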
# Assay: cells
# Type: functional, cell-based, Homo sapiens
# Details: Homo sapiens, IA-LM
# Description: SANGER: Inhibition of human IA-LM cell growth in a cell viability assay.
row,Compound,IC50
1,CCN(CC)CCNC(=O)c1c(C)[nH]c(/C=C2\C(=O)Nc3ccc(F)cc32)c1C [SUNITINIB],> 8 µM

# Test system: SW 962;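 further: growth inhibition of human SW962 cells, read out by a cell viability assay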
# Assay: cells
# Type: functional, cell-based, Homo sapiens
# Details: Homo sapiens, SW 962
# Description: SANGER: Inhibition of human SW962 cell growth in a cell viability assay.
row,Compound,IC50
1,CCN(CC)CCNC(=O)c1c(C)[nH]c(/C=C2\C(=O)Nc3ccc(F)cc32)c1C [SUNITINIB],> 8 µM

# Test system: D283 Med
# Assay: cells
# Type: functional, cell-based, Homo sapiens
# Details: Homo sapiens, D283 Med
# Description: SANGER: Inhibition of human D-283MED cell growth in a cell viability assay.
row,Compound,IC50
1,CCN(CC)CCNC(=O)c1c(C)[nH]c(/C=C2\C(=O)Nc3ccc(F)cc32)c1C [SUNITINIB],> 8 µM

# Test system: KP-N-YS;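 further: cell viability assay measuring inhibition of cell line growth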
# Assay: cells
# Type: functional, cell-based, Homo sapiens
# Details: Homo sapiens, KP-N-YS
# Description: SANGER: Inhibition of human KP-N-YS cell growth in a cell viability assay.
row,Compound,IC50
1,CCN(CC)CCNC(=O)c1c(C)[nH]c(/C=C2\C(=O)Nc3ccc(F)cc32)c1C [SUNITINIB],> 8 µM

# Test system: HAL-01;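 further: growth inhibition of human HAL-01 cells, read out with a cell viability assay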
# Assay: cells
# Type: functional, cell-based, Homo sapiens
# Details: Homo sapiens, HAL-01
# Description: SANGER: Inhibition of human HAL-01 cell growth in a cell viability assay.
row,Compound,IC50
1,CCN(CC)CCNC(=O)c1c(C)[nH]c(/C=C2\C(=O)Nc3ccc(F)cc32)c1C [SUNITINIB],2.06 µM

# Test system: L-428
# Assay: cells
# Type: functional, cell-based, Homo sapiens
# Details: Homo sapiens, L-428
# Description: SANGER: Inhibition of human L-428 cell growth in a cell viability assay.
row,Compound,IC50
1,CCN(CC)CCNC(=O)c1c(C)[nH]c(/C=C2\C(=O)Nc3ccc(F)cc32)c1C [SUNITINIB],> 8 µM

# Test system: A3-KAW;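 further: growth inhibition of human A3-KAW cells, read out with a cell viability assay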
# Assay: cells
# Type: functional, cell-based, Homo sapiens
# Details: Homo sapiens, A3-KAW
# Description: SANGER: Inhibition of human A3-KAW cell growth in a cell viability assay.
row,Compound,IC50
1,CCN(CC)CCNC(=O)c1c(C)[nH]c(/C=C2\C(=O)Nc3ccc(F)cc32)c1C [SUNITINIB],1.63 µM

# Test system: MFH-ino;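 further: growth inhibition of human MFH-ino cells, read out by a cell viability assay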
# Assay: cells
# Type: functional, cell-based, Homo sapiens
# Details: Homo sapiens, MFH-ino
# Description: SANGER: Inhibition of human MFH-ino cell growth in a cell viability assay.
row,Compound,IC50
1,CCN(CC)CCNC(=O)c1c(C)[nH]c(/C=C2\C(=O)Nc3ccc(F)cc32)c1C [SUNITINIB],> 8 µM

# Test system: BB65-RCC;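 further: growth inhibition of the cell line, measured with a cell viability assay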
# Assay: cells
# Type: functional, cell-based, Homo sapiens
# Details: Homo sapiens, BB65-RCC
# Description: SANGER: Inhibition of human BB65-RCC cell growth in a cell viability assay.
row,Compound,IC50
1,CCN(CC)CCNC(=O)c1c(C)[nH]c(/C=C2\C(=O)Nc3ccc(F)cc32)c1C [SUNITINIB],> 8 µM

# Test system: TGW;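 further: growth inhibition of human TGW cells, read out with a cell viability assay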
# Assay: cells
# Type: functional, cell-based, Homo sapiens
# Details: Homo sapiens, TGW
# Description: SANGER: Inhibition of human TGW cell growth in a cell viability assay.
row,Compound,IC50
1,CCN(CC)CCNC(=O)c1c(C)[nH]c(/C=C2\C(=O)Nc3ccc(F)cc32)c1C [SUNITINIB],> 8 µM

# Test system: OCUB-M;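 further: growth inhibition of the cancer cell line, read out through a cell viability assay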
# Assay: cells
# Type: functional, cell-based, Homo sapiens
# Details: Homo sapiens, OCUB-M
# Description: SANGER: Inhibition of human OCUB-M cell growth in a cell viability assay.
row,Compound,IC50
1,CCN(CC)CCNC(=O)c1c(C)[nH]c(/C=C2\C(=O)Nc3ccc(F)cc32)c1C [SUNITINIB],> 8 µM

# Test system: NEC8;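 further: growth inhibition of human NEC8 cells, read out by a cell viability assay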
# Assay: cells
# Type: functional, cell-based, Homo sapiens
# Details: Homo sapiens, NEC8
# Description: SANGER: Inhibition of human NEC8 cell growth in a cell viability assay.
row,Compound,IC50
1,CCN(CC)CCNC(=O)c1c(C)[nH]c(/C=C2\C(=O)Nc3ccc(F)cc32)c1C [SUNITINIB],> 8 µM

# Test system: BE-13;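 further: growth inhibition of human BE-13 cells, measured with a cell viability assay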
# Assay: cells
# Type: functional, cell-based, Homo sapiens
# Details: Homo sapiens, BE-13
# Description: SANGER: Inhibition of human BE-13 cell growth in a cell viability assay.
row,Compound,IC50
1,CCN(CC)CCNC(=O)c1c(C)[nH]c(/C=C2\C(=O)Nc3ccc(F)cc32)c1C [SUNITINIB],3.23 µM

# Test system: EW-24;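 further: human EW-24 cancer cell line, growth inhibition read out via a cell viability assay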
# Assay: cells
# Type: functional, cell-based, Homo sapiens
# Details: Homo sapiens, EW-24
# Description: SANGER: Inhibition of human EW-24 cell growth in a cell viability assay.
row,Compound,IC50
1,CCN(CC)CCNC(=O)c1c(C)[nH]c(/C=C2\C(=O)Nc3ccc(F)cc32)c1C [SUNITINIB],> 8 µM

# Test system: NCI-H747;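 further: growth inhibition of human NCI-H747 cells, read out by a cell viability assay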
# Assay: cells
# Type: functional, cell-based, Homo sapiens
# Details: Homo sapiens, NCI-H747
# Description: SANGER: Inhibition of human NCI-H747 cell growth in a cell viability assay.
row,Compound,IC50
1,CCN(CC)CCNC(=O)c1c(C)[nH]c(/C=C2\C(=O)Nc3ccc(F)cc32)c1C [SUNITINIB],> 8 µM

# Test system: TE-11;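 further: growth inhibition of human TE-11 cells, read out by a cell viability assay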
# Assay: cells
# Type: functional, cell-based, Homo sapiens
# Details: Homo sapiens, TE-11
# Description: SANGER: Inhibition of human TE-11 cell growth in a cell viability assay.
row,Compound,IC50
1,CCN(CC)CCNC(=O)c1c(C)[nH]c(/C=C2\C(=O)Nc3ccc(F)cc32)c1C [SUNITINIB],1.84 µM

# Test system: A101D;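 further: growth inhibition of the cell line, measured with a viability assay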
# Assay: cells
# Type: functional, cell-based, Homo sapiens
# Details: Homo sapiens, A101D
# Description: SANGER: Inhibition of human A101D cell growth in a cell viability assay.
row,Compound,IC50
1,CCN(CC)CCNC(=O)c1c(C)[nH]c(/C=C2\C(=O)Nc3ccc(F)cc32)c1C [SUNITINIB],2.78 µM

# Test system: TE-5;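 further: inhibition of cell growth, read out by a cell viability assay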
# Assay: cells
# Type: functional, cell-based, Homo sapiens
# Details: Homo sapiens, TE-5
# Description: SANGER: Inhibition of human TE-5 cell growth in a cell viability assay.
row,Compound,IC50
1,CCN(CC)CCNC(=O)c1c(C)[nH]c(/C=C2\C(=O)Nc3ccc(F)cc32)c1C [SUNITINIB],> 8 µM

# Test system: GR-ST
# Assay: cells
# Type: functional, cell-based, Homo sapiens
# Details: Homo sapiens, GR-ST
# Description: SANGER: Inhibition of human GR-ST cell growth in a cell viability assay.
row,Compound,IC50
1,CCN(CC)CCNC(=O)c1c(C)[nH]c(/C=C2\C(=O)Nc3ccc(F)cc32)c1C [SUNITINIB],> 8 µM

# Test system: J-RT3-T3-5;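 further: cell viability assay measuring growth inhibition of human J-RT3-T3-5 cells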
# Assay: cells
# Type: functional, cell-based, Homo sapiens
# Details: Homo sapiens, J-RT3-T3-5
# Description: SANGER: Inhibition of human J-RT3-T3-5 cell growth in a cell viability assay.
row,Compound,IC50
1,CCN(CC)CCNC(=O)c1c(C)[nH]c(/C=C2\C(=O)Nc3ccc(F)cc32)c1C [SUNITINIB],6.08 µM

# Test system: MPP-89;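 further: growth inhibition of human MPP-89 cells, read out with a cell viability assay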
# Assay: cells
# Type: functional, cell-based, Homo sapiens
# Details: Homo sapiens, MPP-89
# Description: SANGER: Inhibition of human MPP-89 cell growth in a cell viability assay.
row,Compound,IC50
1,CCN(CC)CCNC(=O)c1c(C)[nH]c(/C=C2\C(=O)Nc3ccc(F)cc32)c1C [SUNITINIB],> 8 µM

# Test system: A704;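 further: growth inhibition of human A704 cells, read out with a cell viability assay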
# Assay: cells
# Type: functional, cell-based, Homo sapiens
# Details: Homo sapiens, A704
# Description: SANGER: Inhibition of human A704 cell growth in a cell viability assay.
row,Compound,IC50
1,CCN(CC)CCNC(=O)c1c(C)[nH]c(/C=C2\C(=O)Nc3ccc(F)cc32)c1C [SUNITINIB],> 8 µM

# Test system: SF-268;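 further: growth inhibition of SF-268 cells determined with a cell viability assay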
# Assay: cells
# Type: functional, cell-based, Homo sapiens
# Details: Homo sapiens, SF-268
# Description: SANGER: Inhibition of human SF268 cell growth in a cell viability assay.
row,Compound,IC50
1,CCN(CC)CCNC(=O)c1c(C)[nH]c(/C=C2\C(=O)Nc3ccc(F)cc32)c1C [SUNITINIB],3.33 µM

# Test system: SK-N-FI;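 further: cell viability assay measuring growth inhibition of human SK-N-FI cells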
# Assay: cells
# Type: functional, cell-based, Homo sapiens
# Details: Homo sapiens, SK-N-FI
# Description: SANGER: Inhibition of human SK-N-FI cell growth in a cell viability assay.
row,Compound,IC50
1,CCN(CC)CCNC(=O)c1c(C)[nH]c(/C=C2\C(=O)Nc3ccc(F)cc32)c1C [SUNITINIB],> 8 µM

# Test system: NCI-H720;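 further: growth inhibition of human NCI-H720 cells determined by a cell viability assay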
# Assay: cells
# Type: functional, cell-based, Homo sapiens
# Details: Homo sapiens, NCI-H720
# Description: SANGER: Inhibition of human NCI-H720 cell growth in a cell viability assay.
row,Compound,IC50
1,CCN(CC)CCNC(=O)c1c(C)[nH]c(/C=C2\C(=O)Nc3ccc(F)cc32)c1C [SUNITINIB],> 8 µM

# Test system: NCI-H1395;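 further: cell viability assay read-out quantifying reduced proliferation of human NCI-H1395 cells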
# Assay: cells
# Type: functional, cell-based, Homo sapiens
# Details: Homo sapiens, NCI-H1395
# Description: SANGER: Inhibition of human NCI-H1395 cell growth in a cell viability assay.
row,Compound,IC50
1,CCN(CC)CCNC(=O)c1c(C)[nH]c(/C=C2\C(=O)Nc3ccc(F)cc32)c1C [SUNITINIB],> 8 µM

# Test system: GOTO;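 further: growth inhibition of GOTO cells, read out by a cell viability assay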
# Assay: cells
# Type: functional, cell-based, Homo sapiens
# Details: Homo sapiens, GOTO
# Description: SANGER: Inhibition of human GOTO cell growth in a cell viability assay.
row,Compound,IC50
1,CCN(CC)CCNC(=O)c1c(C)[nH]c(/C=C2\C(=O)Nc3ccc(F)cc32)c1C [SUNITINIB],> 8 µM

# Test system: 8-MG-BA;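 further: growth inhibition of 8-MG-BA cells, read out with a cell viability assay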
# Assay: cells
# Type: functional, cell-based, Homo sapiens
# Details: Homo sapiens, 8-MG-BA
# Description: SANGER: Inhibition of human 8-MG-BA cell growth in a cell viability assay.
row,Compound,IC50
1,CCN(CC)CCNC(=O)c1c(C)[nH]c(/C=C2\C(=O)Nc3ccc(F)cc32)c1C [SUNITINIB],6.52 µM

# Test system: SK-MEL-1;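 further: growth inhibition of human SK-MEL-1 cells, read out by a cell viability assay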
# Assay: cells
# Type: functional, cell-based, Homo sapiens
# Details: Homo sapiens, SK-MEL-1
# Description: SANGER: Inhibition of human SK-MEL-1 cell growth in a cell viability assay.
row,Compound,IC50
1,CCN(CC)CCNC(=O)c1c(C)[nH]c(/C=C2\C(=O)Nc3ccc(F)cc32)c1C [SUNITINIB],> 8 µM

# Test system: IST-MEL1;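 further: growth inhibition of the cell line, read out with a cell viability assay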
# Assay: cells
# Type: functional, cell-based, Homo sapiens
# Details: Homo sapiens, IST-MEL1
# Description: SANGER: Inhibition of human IST-MEL1 cell growth in a cell viability assay.
row,Compound,IC50
1,CCN(CC)CCNC(=O)c1c(C)[nH]c(/C=C2\C(=O)Nc3ccc(F)cc32)c1C [SUNITINIB],> 8 µM

# Test system: ES6;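 further: growth inhibition of human ES6 cells, read out with a cell viability assay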
# Assay: cells
# Type: functional, cell-based, Homo sapiens
# Details: Homo sapiens, ES6
# Description: SANGER: Inhibition of human ES6 cell growth in a cell viability assay.
row,Compound,IC50
1,CCN(CC)CCNC(=O)c1c(C)[nH]c(/C=C2\C(=O)Nc3ccc(F)cc32)c1C [SUNITINIB],0.981 µM

# Test system: NCI-H82;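 further: growth inhibition of NCI-H82 cells, measured with a cell viability readout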
# Assay: cells
# Type: functional, cell-based, Homo sapiens
# Details: Homo sapiens, NCI-H82
# Description: SANGER: Inhibition of human NCI-H82 cell growth in a cell viability assay.
row,Compound,IC50
1,CCN(CC)CCNC(=O)c1c(C)[nH]c(/C=C2\C(=O)Nc3ccc(F)cc32)c1C [SUNITINIB],7.38 µM

# Test system: GCIY;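 further: growth inhibition of the human GCIY cell line, read out by a cell viability assay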
# Assay: cells
# Type: functional, cell-based, Homo sapiens
# Details: Homo sapiens, GCIY
# Description: SANGER: Inhibition of human GCIY cell growth in a cell viability assay.
row,Compound,IC50
1,CCN(CC)CCNC(=O)c1c(C)[nH]c(/C=C2\C(=O)Nc3ccc(F)cc32)c1C [SUNITINIB],> 8 µM

# Test system: NB6;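 further: growth inhibition of NB6 cells, read out by a cell viability assay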
# Assay: cells
# Type: functional, cell-based, Homo sapiens
# Details: Homo sapiens, NB6
# Description: SANGER: Inhibition of human NB6 cell growth in a cell viability assay.
row,Compound,IC50
1,CCN(CC)CCNC(=O)c1c(C)[nH]c(/C=C2\C(=O)Nc3ccc(F)cc32)c1C [SUNITINIB],> 8 µM

# Test system: L-363
# Assay: cells
# Type: functional, cell-based, Homo sapiens
# Details: Homo sapiens, L-363
# Description: SANGER: Inhibition of human L-363 cell growth in a cell viability assay.
row,Compound,IC50
1,CCN(CC)CCNC(=O)c1c(C)[nH]c(/C=C2\C(=O)Nc3ccc(F)cc32)c1C [SUNITINIB],4.81 µM

# Test system: ES4;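 further: growth inhibition of human ES4 cells, read out by a cell viability assay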
# Assay: cells
# Type: functional, cell-based, Homo sapiens
# Details: Homo sapiens, ES4
# Description: SANGER: Inhibition of human ES4 cell growth in a cell viability assay.
row,Compound,IC50
1,CCN(CC)CCNC(=O)c1c(C)[nH]c(/C=C2\C(=O)Nc3ccc(F)cc32)c1C [SUNITINIB],2.81 µM
